Structures are written as SMILES.

In experiment [1] the test system is TNF-alpha (Homo sapiens). As to the kind of experiment: Compound was tested for the inhibition of LPS-induced TNF-alpha production in human peripheral blood mononuclear cells (PBMC) at 30 uM.
Experiment [2] relates to TNF-alpha (Homo sapiens). Nature of the experiment: Compound was tested for the inhibition of LPS-induced TNF-alpha production in human peripheral blood mononuclear cells (PBMC).

For `O=C1CCC(N2C(=O)c3ccccc3C2=S)C(=O)N1` (stereo not drawn), in experiment [1], at 30 µM the inhibition was 23%. Further, in experiment [2], the half-inhibitory concentration (IC50) was over 30 µM.
`O=C1NC(=S)CCC1N1C(=O)c2ccccc2C1=S` (stereo not drawn) yielded an inhibition at 30 µM in experiment [1] of 61%. Moreover, in experiment [2], the half-maximal inhibitory concentration (IC50) is 11 µM.
As to `O=C1c2ccccc2C(=S)N1C1C=CCCC1` (stereo not drawn), the inhibition at 30 µM in experiment [1] worked out at 85%. The compound also showed a 50% inhibitory concentration (IC50) in experiment [2] of 16 µM.
With `COC(=O)CCC(C(=O)OC)N1C(=O)c2ccccc2C1=S` (stereo not drawn), in experiment [1], testing at 30 µM gave an inhibition of 56%. For the same compound, in experiment [2], the IC50 is 20 µM.
For `O=C1NC(=S)c2ccccc21` the same measures were 34% and over 30 µM.
As to `O=C1CCCC(=S)N1`, in experiment [1], 30 µM produced 15% inhibition. Further, the half-maximal inhibitory concentration (IC50) in experiment [2] was over 30 µM.
For the compound `O=C1c2ccccc2C(=S)N1C1CCC(=S)NC1=S` (stereo not drawn), 30 µM produced 79% inhibition in experiment [1]. For the same compound, the IC50 in experiment [2] was 6 µM.
As for `O=C1c2ccccc2C(=O)N1C1CCC(=S)NC1=S` (stereo not drawn), in experiment [1], the inhibition at 30 µM stood at 52%. The compound further returned a concentration for half-maximal inhibition (IC50) in experiment [2] of 20 µM.
`S=C1NC(=S)c2ccccc21`: testing at 30 µM in experiment [1] gave an inhibition of 95%. The 50% inhibitory concentration (IC50) in experiment [2] turned out to be 3 µM.
In experiment [1], `S=C1c2ccccc2C(=S)N1C1C=CCCC1` (stereo not drawn) showed an inhibition at 30 µM of 86%. The same compound returned an IC50 in experiment [2] of 15 µM.
Consider `S=C1CCCC(=S)N1`, for which 30 µM produced 75% inhibition in experiment [1]. For the same compound, the IC50 in experiment [2] is 8 µM.
On the same counts, the results for `O=C(O)CCC(C(=O)O)N1C(=O)c2ccccc2C1=S` (stereo not drawn) are 20% and over 30 µM.
For `O=C1NC(=S)CCC1N1C(=O)c2ccccc2C1=O` (stereo not drawn) the same measures were 31% and over 30 µM.
For `COC(=O)CCC(C(=O)OC)N1C(=S)c2ccccc2C1=S` (stereo not drawn), the inhibition at 30 µM in experiment [1] stood at 85%. 10 µM corresponded to half-maximal inhibition in experiment [2] (IC50).

These data come from ChEMBL document CHEMBL1146001, “Thiothalidomides: novel isosteric analogues of thalidomide with enhanced TNF-alpha inhibitory activity” (J Med Chem, 2003).
